pIC50: −log10 of the molar value.
How the values were obtained:
Assay in all cases: cells
Design in all cases: species or system melanoma cell lines (3D spheres); 3D melanoma tumour sphere viability, CellTiter-Glo 3D luminescence, 7-point dose response
[1] = system: D20; conditions: 3D tumour spheres, 72 h
Procedure: (§1) Dose responses to TRX-E-009-1 and TRX-E-002-1 were performed using 3D tumour sphere cultures of 21 melanoma cell lines. Cells were dissociated and seeded[17] at previously optimized densities into 384-well Ultra-Low Attachment plates (#3827, Corning). Cells were treated the following day with a 7 point 3-fold dilution series, 5.4 µM to 7.4 nM using a Sciclone ALH 3000 [compound left out] handling robot. Changes in cell viability were assayed at 72 hours using the Cell Titre Glo 3D assay (#G9683, Promega), luminescence reads were performed on a SynergyMx Plate Reader (BioTek Instruments). Luminescence values were normalized to the DMSO/vehicle control prior to comparisons. […] A second independent panel of melanoma cell lines grown as tumour spheres was assessed for sensitivity to both TRX-E-009-1 and TRX-E-002-1. […] As found with the Oncopanel melanoma cell lines, a subset (one third) of the cell lines were sensitive to killing by these BP compounds, with <20% viability at the highest concentration tested. These lines will be referred to as sensitive. The cell lines with >25% viability at the highest dose appear comparatively resistant to killing by the compounds and are referred to as resistant. Subsequent experiments utilized A2058, D04, SKMEL13, and A375 as representative of sensitive cell lines, while A15, SKMEL28, C013, and C002 were used to assess the effects of TRX-E-009-1 and TRX-E-002-1 on resistant lines.

[2] = system: HT144; conditions: Homo sapiens, HT-144; 3D tumour spheres, 72 h
Procedure: as §1

[3] = system: SKMEL28; conditions: Homo sapiens, SK-MEL-28; 3D tumour spheres, 72 h
Procedure: as §1

[4] = system: A375; conditions: Homo sapiens, A-375; 3D tumour spheres, 72 h
Procedure: as §1

[5] = system: C002; conditions: 3D tumour spheres, 72 h
Procedure: as §1

[6] = system: D25; conditions: 3D tumour spheres, 72 h
Procedure: as §1

[7] = system: C013; conditions: 3D tumour spheres, 72 h
Procedure: as §1

[8] = system: A2058; conditions: Homo sapiens, A2058; 3D tumour spheres, 72 h
Procedure: as §1

[9] = system: C054; conditions: 3D tumour spheres, 72 h
Procedure: as §1

[10] = system: D04; conditions: 3D tumour spheres, 72 h
Procedure: as §1

[11] = system: A15; conditions: 3D tumour spheres, 72 h
Procedure: as §1

[12] = system: SKMEL13; conditions: 3D tumour spheres, 72 h
Procedure: as §1

[13] = system: MM415; conditions: 3D tumour spheres, 72 h
Procedure: as §1

[14] = system: MM96L; conditions: Homo sapiens, MM96L; 3D tumour spheres, 72 h
Procedure: as §1

[15] = system: C045; conditions: 3D tumour spheres, 72 h
Procedure: as §1

[16] = system: MM603; conditions: 3D tumour spheres, 72 h
Procedure: as §1

[17] = system: C052; conditions: 3D tumour spheres, 72 h
Procedure: as §1

[18] = system: MM370; conditions: 3D tumour spheres, 72 h
Procedure: as §1

[19] = system: MM329; conditions: 3D tumour spheres, 72 h
Procedure: as §1

[20] = system: D28; conditions: 3D tumour spheres, 72 h
Procedure: as §1

[21] = system: BL; conditions: 3D tumour spheres, 72 h
Procedure: as §1

COc1cc([C@@H]2COc3c(ccc(O)c3C)[C@@H]2c2ccc(O)c(F)c2)cc(OC)c1O (racemic) [TRX-E-009-1]
pIC50 [1]: 5.96
pIC50 [2]: 6.63
pIC50 [3]: 5.34
pIC50 [4]: 6.49
pIC50 [5]: 6.01
pIC50 [6]: 5.30
pIC50 [7]: 6.50
pIC50 [8]: 6.53
pIC50 [9]: 6.07
pIC50 [10]: 6.60
pIC50 [11]: 6.31
pIC50 [12]: 6.61
pIC50 [13]: 6.49
pIC50 [14]: 6.55
pIC50 [15]: 6.34
pIC50 [16]: 6.55
pIC50 [17]: 6.53
pIC50 [18]: 6.54
pIC50 [19]: 6.75
pIC50 [20]: 6.10
pIC50 [21]: 6.47
